# Paper PMC11336141
# Ends that are not written are not given here.
# Columns and labels:
# perfused rat pancreas = experiment: Rat pancreas perfusion, glucagon output; design: species or system rat (Wistar); settings: bolus 10 mM L-arginine at end of experiment
# Method: Non-fasted rats were anesthetized by a subcutaneous injection of a balanced mix of hypnorm and midazolam (0.3 mL/100 g body weight). Rats were placed on a heated operating table (37 °C) and the abdomen were opened. Blood vessels were tied off before removing the large and small intestines, the stomach, and the spleen. Then, the kidneys were ligated. […] The perfusion buffer was a modified Krebs-Ringer bicarbonate buffer with 5% (w/v) dextran T-70 (Pharmacosmos, Holbaek, Denmark), 0.1% (w/v) BSA (fraction V), 3.5 mM glucose and 3 mM vamin (Fresenius Kabi, Copenhagen, Denmark), pH adjusted to 7.4. […] Once perfusion of the pancreas was established, a catheter was inserted in the vena portae to collect the venous effluent and the rat was sacrificed by perforation of the diaphragm. After a 30-minute equilibration period, samples were collected every minute for the duration of the protocol. […] 10 mM L-Arginine was used as a positive control. Collected samples were immediately transferred on ice and stored at −20 °C until hormone analysis. Glucagon, insulin, and somatostatin concentrations in venous effluents were quantified by use of validated in-house radioimmunoassays (RIA) as previously described[36] (see below). Statistical analysis were performed where appropriate using one-way analysis of variance (ANOVA) with Dunnett’s post-test. Statistical significance was taken as p < 0.05.
# Glucagon concentration in perfusion samples were measured by a validated in-house RIAs using the 4305 antibody, which reacts with the C-terminal epitope of glucagon[36] and no other cleavage products of pro-glucagon. Insulin concentrations were measured with the 2006 antibody, which measures all isoforms of rat insulin. […] Assay sensitivity was <1 pmol/L ( < 5 pmol/L for insulin detection), allowing reliable measurements of increments of at least 25 fmol/min.
# Data analysis were performed in GraphPad Prism (v.9.4.1). Statistical analysis were performed using two-way repeated measure analysis of variance (ANOVA) with Šidák test for isolated islets glucagon secretion and one-way repeated measure ANOVA with Dunnett's test for rat pancreas perfusion experiments. Statistical significance was taken as p < 0.05.
# [1] = tested on: mock (pcDNA) transfected HEK293T cells; experiment: GoA dissociation in mock (pcDNA) transfected HEK293T cells; type: cell-based; settings: Fig. S6B
# Method: The following protocol was adopted from Masuho et al., 2015[33]. HEK293T cells were seeded onto 6-well plates at a density of 750,000 cells/well. […] 16 to 24 hours post-transfection, HEK293T cells were seeded onto white 96 well plate (PerkinElmer) coated with poly-L-lysine (PLL) at a density of 40,000 cells/well and were allowed to grow overnight. On the day of assay, cells were washed once with phosphate-based saline (PBS) and 80 µL of assay buffer which composed of PBS with 0.5 mM MgCl2 and 0.1% glucose, pH 7.4, were added onto each well. 10 µL of Nluc luciferase substrate furimazine (Promega) were added onto each well and incubated for 3 minutes.
# Crude C. geographus venom was subjected to reversed-phase high performance liquid chromatography (RP-HPLC). Pools consisting of 5 adjacent fractions were then tested for their ability to induce GoA dissociation at the hSSTR2. […] Error bars represent means ± S.E.M. of only one technical experiment in duplicate.
# Error bars represent means ± S.E.M. of only one technical experiment in duplicate.
# [2] = target: zebrafish sstr2a, Tango construct (zebrafish (Danio rerio)) (UniProt E7FDL0)
# [3] = target: zebrafish sstr2b, Tango construct (zebrafish (Danio rerio))
# human SSTR2 (GoB) = target: T1, human SSTR2 (GoB) (Homo sapiens, UniProt P30874); experiment: G protein activation (BRET dissociation) assay, GoB at hSSTR2; type: cell-based;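 further: percent of the maximal response to the reference somatostatin agonist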
# T1 construct: host or cells: HEK293T cells
# T1 sequence (P30874 whole entry): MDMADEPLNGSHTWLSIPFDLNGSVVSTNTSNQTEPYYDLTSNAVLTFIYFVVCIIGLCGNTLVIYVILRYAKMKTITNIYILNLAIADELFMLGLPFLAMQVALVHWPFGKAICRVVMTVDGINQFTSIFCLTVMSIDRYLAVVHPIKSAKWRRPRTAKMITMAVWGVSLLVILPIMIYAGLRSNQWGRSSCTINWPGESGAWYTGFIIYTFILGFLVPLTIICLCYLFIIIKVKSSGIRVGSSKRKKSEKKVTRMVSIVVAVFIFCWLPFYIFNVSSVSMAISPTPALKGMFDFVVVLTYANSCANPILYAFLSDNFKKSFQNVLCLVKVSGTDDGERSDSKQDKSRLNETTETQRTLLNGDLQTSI
# Method: (§1) HEK293T cells were seeded onto 6-well plates at a density of 750,000 cells/well. […] 16 to 24 hours post-transfection, HEK293T cells were seeded onto white 96 well plate (PerkinElmer) coated with poly-L-lysine (PLL) at a density of 40,000 cells/well and were allowed to grow overnight. On the day of assay, cells were washed once with phosphate-based saline (PBS) and 80 µL of assay buffer which composed of PBS with 0.5 mM MgCl2 and 0.1% glucose, pH 7.4, were added onto each well. 10 µL of Nluc luciferase substrate furimazine (Promega) were added onto each well and incubated for 3 minutes.
# (§2) The net BRET ratio was determined by subtracting the BRET ratio of drugs with the BRET ratio of vehicle control. Net BRET ratio over time was then plotted using GraphPad Prism (v.9.4.1), and the area-under-curve of net BRET ratio over time course for each ligand concentration tested were then determined and plotted against log(concentration) of drugs tested. […] Concentration response curves were fitted with a 4-parameter logistic Eq. (1) using GraphPad Prism (v.9.4.1):1 Y=Emin+(Emax−Emin)/1+10^logEC50−X×Hillslope
# human SSTR2 (GoA) = human SSTR2 (GoA) (Homo sapiens, UniProt P30874); experiment: G protein activation (BRET dissociation) assay, GoA at hSSTR2; settings: read-out: Emax ± S.E.M.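 Further: percent of the maximal response to the reference somatostatin agonist.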
# human SSTR2 (GoA), sequence (P30874 whole entry): as above
# Method: as §1, §2
# human SSTR2 (Gi1) = target: T2, human SSTR2 (Gi1) (Homo sapiens, UniProt P30874); experiment: G protein activation (BRET dissociation) assay, Gi1 at hSSTR2; type: cell-based;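 further: percent of the maximal response to the reference somatostatin agonist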
# T2 construct: host or cells: HEK293T cells
# T2 sequence (P30874 whole entry): as above
# Method: as §1, §2
# human SSTR2 (Gi2) = target: T3, human SSTR2 (Gi2) (Homo sapiens, UniProt P30874); experiment: G protein activation (BRET dissociation) assay, Gi2 at hSSTR2; type: cell-based;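 further: percent of the maximal response to the reference somatostatin agonist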
# T3 construct: host or cells: HEK293T cells
# T3 sequence (P30874 whole entry): as above
# Method: as §1, §2
# human SSTR2 (Gi3) = target: T4, human SSTR2 (Gi3) (Homo sapiens, UniProt P30874); experiment: G protein activation (BRET dissociation) assay, Gi3 at hSSTR2; type: cell-based;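 further: percent of the maximal response to the reference somatostatin agonist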
# T4 construct: host or cells: HEK293T cells
# T4 sequence (P30874 whole entry): as above
# Method: as §1, §2
# human SSTR2 = human SSTR2 (Homo sapiens, UniProt P30874); experiment: PRESTO-Tango β-arrestin recruitment assay, hSSTR2; settings: read-out: Emax ± S.E.M., Table S1; % of maximal response relative to SS-14
# human SSTR2, sequence (P30874 whole entry): as above
# Method: HTLA cells were given by Prof. Bryan Roth (University of North Carolina, Chapel Hill, US) and were maintained in Dulbecco’s modified Eagle’s medium (DMEM) supplemented with 10% Fetal Bovine Serum (FBS) (Biowest) and 100 U/mL penicillin and 100 µg/mL streptomycin at 37 °C in a humidified incubator supplemented with 5% CO2. Constant selective pressure for tTA-dependent luciferase reporter and a β-arrestin 2 tobacco etch virus protease fusion gene were maintained with the addition of 100 µg/mL hygromycin B and 2 µg/ml puromycin (Tango growth medium).
# Briefly, HTLA cells (1 million cells/well) were seeded in 6-well plates in Tango growth medium, and incubated overnight. On day 2, medium was changed to Tango growth medium without hygromycin B and puromycin. Cells were then transfected using Polyfect (Qiagen) according to manufacturer’s protocol. On day 3, 15,000 cells in 40 µL DMEM supplemented with 1% dialyzed FBS (Tango assay medium) per well were seeded in poly-D-lysine-coated white clear-bottom 384 well plates (Corning) and incubated overnight. On day 4, the Tango assay medium was changed and 10 µL of each of the peptide was added at 5x final concentration. The peptides were resuspended in HBSS with 20 mM HEPES, 1 mM of CaCl2, 1 mM of MgCl2, pH adjusted to 7.4 with 1 M NaOH (Tango assay buffer), which was supplemented with 0.1% BSA (Tango ligand buffer). After overnight incubation, on day 5, the medium and the compounds were removed from the cells and 20 µL of 1:20 dilution of BrightGlo (Promega) in Tango assay buffer supplemented with 0.01% pluronic F68 was added to the cells. Plates were incubated for 20 minutes in the dark at room temperature. Luminescence was measured on a Molecular Devices SpectraMax iD5 (Molecular Devices) with each well integrated for 1 second.
# human SSTR3 = target: T5, human SSTR3 (Homo sapiens, UniProt P32745); experiment: PRESTO-Tango β-arrestin recruitment assay, hSSTR3; type: cell-based
# T5 construct: Tango cassette (PRESTO-Tango template of Kroeze et al. 2015); Bryan Roth (Addgene) Addgene kit # 1000000068; host or cells: HTLA cells
# T5 sequence (P32745 whole entry): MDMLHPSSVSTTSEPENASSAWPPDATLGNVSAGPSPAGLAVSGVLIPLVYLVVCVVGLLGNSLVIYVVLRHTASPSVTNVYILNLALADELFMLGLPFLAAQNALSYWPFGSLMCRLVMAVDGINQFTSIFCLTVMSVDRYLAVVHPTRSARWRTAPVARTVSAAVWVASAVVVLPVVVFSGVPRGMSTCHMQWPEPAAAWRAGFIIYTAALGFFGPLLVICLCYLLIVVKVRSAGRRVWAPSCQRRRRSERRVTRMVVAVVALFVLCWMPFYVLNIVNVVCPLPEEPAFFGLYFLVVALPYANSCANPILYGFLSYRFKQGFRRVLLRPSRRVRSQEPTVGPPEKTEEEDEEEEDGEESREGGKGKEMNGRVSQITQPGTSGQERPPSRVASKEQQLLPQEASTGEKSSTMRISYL
# Source text: HTLA cells were given by Prof.
# The assay was done as described in ref. [12].
# plasma glucose = settings: compared with GLP-1; cited from earlier work
# Source text: Another example of a doppelganger peptide with drug-like properties that targets glucose homeostasis is exendin-4, a glucagon-like peptide-1 (GLP-1) peptide derived from the salivary gland of the Gila monster, Heloderma suspectum. […] Following successful clinical trials, exendin-4 (exenatide) entered the market in 2005 as a first-in-class incretin-mimetic for the treatment of type 2 diabetes (T2D). Since then, several other GLP-1 analogs have been devel ...
compound,measurement,setting,value
"N=C(N)NCCC[C@H](N)C(=O)O [L-arginine, reference compound]",effect on glucagon levels (positive control),perfused rat pancreas,revert glucagon levels
"SST-14 (AGCKNFFWKTFTSC; not fully specified (bridges); ends and bridges not checked; UniProt P61278 103-116, looked up)","pcDNA/GoA response, Mean","[1]; at pEC20, data row 1",0.005611
same,"pcDNA/GoA response, Mean","[1]; at pEC20, data row 2",0.02323
same,"pcDNA/GoA response, Mean","[1]; at pEC20, data row 3",0.002971
same,"pcDNA/GoA response, Mean","[1]; at pEC50, data row 1",0
same,"pcDNA/GoA response, Mean","[1]; at pEC50, data row 2",0.0008161
same,"pcDNA/GoA response, Mean","[1]; at pEC50, data row 3",0
Somatostatin-14 (from UniProt P61278 103-116) (peptide),"EC50, PRESTO-Tango β-arrestin recruitment assay",[2],28.6 nM
same,"EC50, PRESTO-Tango β-arrestin recruitment assay",[3],132 nM
"C[C@@H](O)[C@@H]1NC(=O)[C@H](CCCCN)NC(=O)[C@@H](Cc2c[nH]c3ccccc23)NC(=O)[C@H](Cc2ccccc2)NC(=O)[C@@H](NC(=O)[C@H](N)Cc2ccccc2)CSSC[C@@H](C(=O)N[C@H](CO)[C@@H](C)O)NC1=O [Octreotide, octreotide, reference compound]",Emax,human SSTR2 (GoB),101 ± 2.64%
same,Emax,human SSTR2 (GoA),96.2 ± 4.77%
same,Emax,human SSTR2 (Gi1),84.2 ± 4.44%
same,Emax,human SSTR2 (Gi2),64 ± 2.97%
same,Emax,human SSTR2 (Gi3),77.5 ± 3.67%
same,Emax,human SSTR2,94 ± 1.4%
same,Emax,human SSTR3,108 ± 13.4%
exendin-4,in vivo half-life in words,plasma glucose,significantly longer in vivo half-life than GLP-1
same,potency in lowering plasma glucose in words,plasma glucose,much greater potency in lowering plasma glucose
